Data on nine molecules can be found in US7259003B2, “Escherichia bacteria transformed with a yedA homolog to enhance L-amino acid producing activity, and methods for producing an L-amino acid using same” (priority 2001, dated 2007).

Common to all, as to assay type: cell-based
Holding throughout (details): 37° C.

For assay [1], the system named is E. coli strain TG1 (pUC19). Nature of the assay: Growth of E. coli TG1 (pUC19) on M9 glucose minimal agar containing amino acids and amino acid analogs. How it is done: (§1) The pYEDA1 and pYEDA2 plasmids and the pUC19 and pAYCTER3 vectors were introduced into E. coli strain TG1. Thus the strains TG1 (pYEDA1), TG1 (pYEDA2), TG1 (pUC19) and TG1 (pAYCTER3) were obtained.
(§2) Then the ability of these strains to grow in the presence of amino acids and amino acid analogues for each strain were determined on M9 glucose minimal agar plates containing graded concentrations of inhibitor. The plates were spotted with 10^6 to 10^7 cells from an overnight culture grown in a minimal medium (supplemented with 100 μg/ml of ampicillin for plasmid strains). The growth was estimated after 44 h incubation at 37° C.

Assay [2] deals with E. coli strain TG1 (pYEDA1). Nature of the assay: Growth of E. coli TG1 (pYEDA1) on M9 glucose minimal agar containing amino acids and amino acid analogs. How it is done:
as §1, §2

Assay [3] relates to E. coli strain TG1 (pYEDA2). As to the kind of experiment: Growth of E. coli TG1 (pYEDA2) on M9 glucose minimal agar containing amino acids and amino acid analogs. How it is done: as §1, §2
Note: key: +: good growth; −: no growth.

Consider `CN(C)CC(N)C(=O)O` (racemic) [4-aza-DL-leucine], for which the “Growth after 44 h TG1 (pUC19)” value in assay [1] (substrate 1.0 mg/ml) is listed as “−”. In assay [2] (substrate 1.0 mg/ml), the “Growth after 44 h TG1 (pYEDA1)” value is “+”.

Regarding `NC(Cc1c[nH]c2ccc(F)cc12)C(=O)O` (racemic) [5-fluoro-DL-tryptophane], in assay [1] (substrate 0.0005 mg/ml), the “Growth after 44 h TG1 (pUC19)” value is reported as “−”. Besides, the “Growth after 44 h TG1 (pYEDA1)” value in assay [2] (substrate 0.0005 mg/ml) was “+”.

With `NC(Cc1ccc(F)cc1)C(=O)O` (racemic) [p-fluoro-DL-phenylalanine], the “Growth after 44 h TG1 (pUC19)” value in assay [1] (substrate 1.0 mg/ml) and in assay [1] (substrate 2.0 mg/ml) was “−” in each case. Also, the “Growth after 44 h TG1 (pYEDA1)” value in assay [2] (substrate 1.0 mg/ml) and in assay [2] (substrate 2.0 mg/ml) was “+” each time. The “Growth after 44 h TG1 (pYEDA2)” value in assay [3] (substrate 1.0 mg/ml) is “+”; in assay [3] (substrate 2.0 mg/ml), “−”.

In the case of `N[C@@H](CS)C(=O)O` [L-cysteine], the “Growth after 44 h TG1 (pUC19)” value in assay [1] (substrate 7.5 mg/ml) was “−”. Also, in assay [2] (substrate 7.5 mg/ml), the “Growth after 44 h TG1 (pYEDA1)” value was “+”.

Take `N[C@@H](Cc1c[nH]cn1)C(=O)O` [L-histidine]: in assay [1] (substrate 20.0 mg/ml), the “Growth after 44 h TG1 (pUC19)” value is “−”. Moreover, the “Growth after 44 h TG1 (pYEDA1)” value in assay [2] (substrate 20.0 mg/ml) was “+”.

Regarding `N[C@@H](CCO)C(=O)O` [L-homoserine], the “Growth after 44 h TG1 (pUC19)” value in assay [1] (substrate 3.0 mg/ml) is given as “−”. Further, the “Growth after 44 h TG1 (pYEDA1)” value in assay [2] (substrate 3.0 mg/ml) is reported as “+”.

`N[C@@H](Cc1ccccc1)C(=O)O` [L-phenylalanine]: the “Growth after 44 h TG1 (pUC19)” value in assay [1] (substrate 20.0 mg/ml) is given as “−”. Further, the “Growth after 44 h TG1 (pYEDA1)” value in assay [2] (substrate 20.0 mg/ml) is recorded as “+”. Also, the “Growth after 44 h TG1 (pYEDA2)” value in assay [3] (substrate 20.0 mg/ml) is listed as “−”.

Regarding `C[C@@H](O)[C@H](N)C(=O)O` [L-threonine], the “Growth after 44 h TG1 (pUC19)” value in assay [1] (substrate 50.0 mg/ml) is “−”. In assay [2] (substrate 50.0 mg/ml), the “Growth after 44 h TG1 (pYEDA1)” value is “+”.

With `NCCSC[C@H](N)C(=O)O` [S(2-aminoethyl)-L-cysteine], the “Growth after 44 h TG1 (pUC19)” value in assay [1] (substrate 0.4 mg/ml) is “−”. Moreover, the “Growth after 44 h TG1 (pYEDA1)” value in assay [2] (substrate 0.4 mg/ml) is recorded as “+”. Further, the “Growth after 44 h TG1 (pYEDA2)” value in assay [3] (substrate 0.4 mg/ml) is listed as “+”.
